Test results taken from patent USRE32333E, “A-21978 Antibiotics and process for their production” (priority 1985, dated 1987).
Converted amounts (≈) assume the structure as drawn. “And” between values parts separate entries of the source, which are not always exact repeats. Equal entries are not always repeated. Where two headings read alike, the source gives them in different places.

How the values were obtained:
[1] = system: A21978.6 (Streptomyces roseosporus NRRL 11379); assay: Antibiotic sensitivity of producing culture (sensitivity discs); format: cell-based; design: key: + = sensitive (zones of inhibition); - = resistant (no zones of inhibition); details: discs on seeded ISP #2 agar; erythromycin 15 μg, cephalothin 30 μg, lincomycin 2 μg, nystatin 100 units, polymyxin B 300 units, streptomycin 10 μg, tetracycline 30 μg, vancomycin 30 μg
Protocol: (§1) Temperature range, NaCl tolerance, pH range, and antibiotic sensitivity were done using ISP #2 agar medium. The range of temperatures were: 25°, 28°, 30°, 34°, 37°, 40°, 45°, 50° and 55° C. NaCl tolerance was measured by adding NaCl to the agar to equal: 0, 1, 2, 3, 4, 5, 6, 8, 10 and 12%. These were incubated at 30° C. The pH range was measured by adjusting the agar from pH 3.0 to 11.0 at increments of 1.0 pH units, just prior to pouring. Antibiotic sensitivity was determined using sensitivity discs padded onto seeded agar plates.

[2] = system: S. roseosporus (ISP 5122; ATCC 23958); assay: Antibiotic sensitivity of comparison culture (sensitivity discs); format: cell-based, Streptomyces roseosporus; design: key: + = sensitive (zones of inhibition); - = resistant (no zones of inhibition); details: discs on seeded ISP #2 agar; erythromycin 15 μg, cephalothin 30 μg, lincomycin 2 μg, nystatin 100 units, polymyxin B 300 units, streptomycin 10 μg, tetracycline 30 μg, vancomycin 30 μg
Protocol: as §1, with “plates. Streptomyces roseosporus ISP 5122; ATCC 23958” for “plates.”

[3] = Rat, IV
[4] = system: Clostridium perfringens; details: anaerobe, agar-dilution
[5] = system: Streptococcus pyogenes C203; assay: MIC, standard agar-dilution test (Table XI); format: cell-based; details: aerobic, S. pyogenes C203, sodium salt form
[6] = system: Group D Streptococcus 282; assay: MIC, standard agar-dilution test (Table XI); format: cell-based; details: aerobic, sodium salt form
[7] = system: Streptococcus pneumoniae; assay: MIC, agar dilution (Table XV); format: cell-based
From the text: (§2) ^1 MIC = minimum inhibitory concentration (μg/ml), agar dilution

[8] = system: Staphylococcus aureus; assay: MIC, agar dilution (Table XV); format: cell-based
From the text: as §2

[9] = system: Streptococcus pyogenes; assay: MIC, agar dilution (Table XV); format: cell-based
From the text: as §2

[10] = system: Streptococcus faecalis (Guze); assay: In vitro susceptibility (MIC) of the S. faecalis Guze strain; format: cell-based
From the text: ^1 In vitro susceptibility of the S. faecalis Guze strain

[11] = system: Streptococcus pneumoniae Park I; assay: MIC, standard broth-dilution test (Table XII); format: cell-based; details: aerobic, S. pneumoniae Park I
[12] = system: Streptococcus pneumoniae Park I; assay: MIC, standard agar-dilution test (Table XI); format: cell-based; details: aerobic, S. pneumoniae Park I, sodium salt form
[13] = system: Staphylococcus aureus 3055; assay: MIC, standard broth-dilution test (Table XII); format: cell-based; details: aerobic, S. aureus 3055
[14] = system: Group D Streptococcus 282; assay: MIC, standard broth-dilution test (Table XII); format: cell-based; details: aerobic
[15] = system: Streptococcus pneumoniae; assay: Experimental bacterial infection in mice, ED50; format: in vivo; details: S. pneumoniae infection, two doses, subcutaneous administration
Protocol: (§3) When two doses of test compound were administered to mice in illustrative infections, the activity observed as measured as an ED50 value [effective dose in mg/kg to protect fifty percent of the test animals: See Warren Wick, et al., J. Bacteriol, 81, 233-235 (1961)].

[16] = system: Staphylococcus aureus; assay: Experimental bacterial infection in mice, ED50; format: in vivo; details: S. aureus infection, two doses, subcutaneous administration
Protocol: as §3

[17] = system: Streptococcus pyogenes; assay: Experimental bacterial infection in mice, ED50; format: in vivo; details: S. pyogenes infection, two doses
Protocol: as §3

[18] = system: Micrococcus luteus; assay: Paper-disc agar-diffusion bioassay; details: individual factors, Na salts
[19] = system: Bacteroides fragilis; assay: MIC against anaerobic bacteria, standard agar-dilution (Table XIV); format: cell-based; details: anaerobe
[20] = system: Clostridium septicum; assay: as above; format: cell-based; details: anaerobe
[21] = system: Actinomyces israelii; assay: as above; format: cell-based; details: anaerobe
[22] = system: Fusobacterium symbiosum; assay: as above; format: cell-based; details: anaerobe
[23] = system: Streptococcus faecalis (Guze); assay: Streptococcus faecalis descending rat pyelonephritis test; details: for Percent of Rats Cured: cure = kidney counts less than 10^2 per g; for Percent of Rats with a 4-Log Titer Decrease: once daily, kidney titer vs infected controls
[24] = system: Fusobacterium necrophorum; assay: MIC against anaerobic bacteria, standard agar-dilution (Table XIV); format: cell-based; details: anaerobe
[25] = system: Peptococcus prevoti; assay: as above; format: cell-based; details: anaerobe
[26] = system: Peptococcus asaccharolyticus; assay: as above; format: cell-based; details: anaerobe
[27] = system: Staphylococcus aureus; assay: MIC against clinical isolates, ICS agar-dilution (Table XIII); format: cell-based; details: 10 clinical isolates, bracket = number of isolates with this MIC or range
[28] = system: Peptostreptococcus anaerobius; assay: MIC against anaerobic bacteria, standard agar-dilution (Table XIV); format: cell-based; details: anaerobe
[29] = system: Streptococcus pyogenes C203; assay: MIC, standard broth-dilution test (Table XII); format: cell-based; details: aerobic, S. pyogenes C203
[30] = system: Eubacterium aerofaciens; assay: MIC against anaerobic bacteria, standard agar-dilution (Table XIV); format: cell-based; details: anaerobe
[31] = system: Viridans Streptococcus 9943; assay: MIC, standard broth-dilution test (Table XII); format: cell-based; details: aerobic
[32] = Electrometric titration in 66% aqueous dimethylformamide; format: physicochemical; details: 66% DMF, Na salt forms; factors: two determinations
[33] = system: Neisseria gonorrhoeae 111076-4; assay: MIC, standard agar-dilution test (Table XI); format: cell-based; details: aerobic, N. gonorrhoeae 111076-4, sodium salt form
[34] = system: Peptostreptococcus intermedius; assay: MIC against anaerobic bacteria, standard agar-dilution (Table XIV); format: cell-based; details: anaerobe
[35] = system: Propionibacterium acnes; assay: as above; format: cell-based; details: anaerobe
[36] = system: Viridans Streptococcus 9943; assay: MIC, standard agar-dilution test (Table XI); format: cell-based; details: aerobic, sodium salt form
[37] = system: Staphylococcus aureus 3055; assay: MIC, standard agar-dilution test (Table XI); format: cell-based; details: aerobic, S. aureus 3055, sodium salt form
[38] = Mouse

CN(C)[C@@H]1C(O)=C(C(N)=O)C(=O)[C@@]2(O)C(O)=C3C(=O)c4c(O)cccc4[C@@](C)(O)[C@H]3C[C@@H]12 [Tetracycline]
Antibiotic Sensitivity, A21978.6 [1]: +
Antibiotic Sensitivity, S. roseosporus [2]: +

CC(=O)OCC1=C(C(=O)O)N2C(=O)[C@@H](NC(=O)Cc3cccs3)[C@H]2SC1 [Cephalothin]
Antibiotic Sensitivity, A21978.6 [1]: +
Antibiotic Sensitivity, S. roseosporus [2]: +

[H]/N=C(/N)N[C@H]1[C@H](O)[C@@H](O)[C@H](O[C@@H]2O[C@@H](C)[C@](O)(C=O)[C@H]2O[C@@H]2O[C@@H](CO)[C@H](O)[C@@H](O)[C@@H]2NC)[C@@H](N/C(N)=N\[H])[C@@H]1O [Streptomycin]
Antibiotic Sensitivity, A21978.6 [1]: +
Antibiotic Sensitivity, S. roseosporus [2]: +

C[C@@H]1[C@H](O)[C@@H](C)/C=C/C=C/CC/C=C/C=C/C=C/C=C/C(O[C@H]2O[C@H](C)[C@@H](O)[C@H](N)[C@@H]2O)CC2O[C@](O)(CC(O)C(O)CCC(O)CC(O)CC(O)CC(=O)O[C@H]1C)CC(O)C2C(=O)O (stereo partly shown) [Nystatin]
Antibiotic Sensitivity, A21978.6 [1]: -
Antibiotic Sensitivity, S. roseosporus [2]: -

Polymyxin B
Antibiotic Sensitivity, A21978.6 [1]: +
Antibiotic Sensitivity, S. roseosporus [2]: -

CCC[C@@H]1C[C@@H](C(=O)N[C@@H]([C@H]2O[C@H](SC)[C@H](O)[C@@H](O)[C@H]2O)[C@@H](C)O)N(C)C1 [Lincomycin]
Antibiotic Sensitivity, A21978.6 [1]: -
Antibiotic Sensitivity, S. roseosporus [2]: -

CC(C)CCCCCCCCC(=O)NC(Cc1c[nH]c2ccccc12)C(=O)NC(CC(N)=O)C(=O)NC(CC(=O)O)C(=O)NC1C(=O)NCC(=O)NC(CCCN)C(=O)NC(CC(=O)O)C(=O)NC(C)C(=O)NC(CC(=O)O)C(=O)NCC(=O)NC(CO)C(=O)NC(C(C)CC(=O)O)C(=O)NC(CC(=O)c2ccccc2N)C(=O)OC1C (stereo not shown) [Factor C2]
LD50 [3]: 204 ± 17 mg/kg
MIC [4]: 8 µg/mL (≈ 4.85 µM)
MIC [5]: 0.13 µg/mL
MIC [6]: 0.25 µg/mL
MIC [7]: 0.13 µg/mL (≈ 0.0788 µM)
MIC [8]: 0.13 µg/mL (≈ 0.0788 µM)
MIC [9]: 0.13 µg/mL (≈ 0.0788 µM)
MIC [10]: 0.25 µg/mL (≈ 0.152 µM)
MIC [11]: 1.0 µg/mL (≈ 0.607 µM)
MIC [12]: 0.25 µg/mL
MIC [13]: 0.5 µg/mL (≈ 0.303 µM)
MIC [14]: 1.0 µg/mL (≈ 0.607 µM)
ED50 [15]: 0.14 mg/kg
ED50 [16]: 0.16 mg/kg
ED50 ([17]; oral administration): 59 mg/kg
ED50 ([17]; subcutaneous administration): 0.032 mg/kg
Bioassay (Micrococcus luteus) [18]: 1390 units/mg
MIC [19]: > 128 µg/mL
MIC [20]: 1.0 µg/mL (≈ 0.607 µM)
MIC [21]: 1.0 µg/mL (≈ 0.607 µM)
MIC [22]: > 128 µg/mL
Percent of Rats Cured ([23]; 1.0 mg/kg x 7 subcutaneous): 89
Percent of Rats with a 4-Log Titer Decrease ([23]; 1.0 mg/kg x 7 subcutaneous): 100
MIC [24]: 64 µg/mL (≈ 38.8 µM)
MIC [25]: 1.0 µg/mL (≈ 0.607 µM)
MIC [26]: 2 µg/mL (≈ 1.21 µM)
Minimum Inhibitory Concentration [27]: 0.12 to 0.25 µg/mL
MIC [28]: 1.0 µg/mL (≈ 0.607 µM)
MIC [29]: 0.25 µg/mL (≈ 0.152 µM)
MIC [30]: 8 µg/mL (≈ 4.85 µM)
MIC [31]: 16.0 µg/mL (≈ 9.7 µM)
pKa Values (first group) [32]: 5.8 and 5.93
pKa Values (second group) [32]: 7.6 and 7.63
MIC [33]: 4.0 µg/mL
MIC [34]: 1.0 µg/mL (≈ 0.607 µM)
MIC [35]: 2 µg/mL (≈ 1.21 µM)
MIC [36]: 1.0 µg/mL
MIC [37]: 0.13 µg/mL
LD50 ([38]; IV): 150 to 250 mg/kg
LD50 ([38]; SC): 175 mg/kg

CC[C@H]1OC(=O)[C@H](C)[C@@H](O[C@H]2C[C@@](C)(OC)[C@@H](O)[C@H](C)O2)[C@H](C)[C@@H](O[C@@H]2O[C@H](C)C[C@H](N(C)C)[C@H]2O)[C@](C)(O)C[C@@H](C)C(=O)[C@H](C)[C@@H](O)[C@]1(C)O [Erythromycin, reference compound]
MIC ([7]; read-out: MIC): 0.5 µg/mL (≈ 0.681 µM)
MIC ([8]; read-out: MIC): 0.13 µg/mL (≈ 0.177 µM)
MIC ([9]; read-out: MIC): 0.13 µg/mL (≈ 0.177 µM)
ED50 ([15]; Streptococcus pneumoniae, sc, read-out: ED50): 7.3 mg/kg
ED50 ([16]; Staphylococcus aureus, sc, read-out: ED50): 0.5 mg/kg
ED50 ([17]; Streptococcus pyogenes, sc, subcutaneous administration, read-out: ED50): 0.64 mg/kg
Antibiotic Sensitivity, A21978.6 [1]: +
Antibiotic Sensitivity, S. roseosporus [2]: +

CN[C@H](CC(C)C)C(=O)N[C@H]1C(=O)N[C@@H](CC(N)=O)C(=O)N[C@H]2C(=O)N[C@H]3C(=O)N[C@H](C(=O)N[C@H](C(=O)O)c4cc(O)cc(O)c4-c4cc3ccc4O)[C@H](O)c3ccc(c(Cl)c3)Oc3cc2cc(c3O[C@@H]2O[C@H](CO)[C@@H](O)[C@H](O)[C@H]2O[C@H]2C[C@](C)(N)[C@H](O)[C@H](C)O2)Oc2ccc(cc2Cl)[C@H]1O [Vancomycin, reference compound]
Antibiotic Sensitivity, A21978.6 [1]: +
Antibiotic Sensitivity, S. roseosporus [2]: +
Percent of Rats Cured ([23]; 12.0 mg/kg x 7 subcutaneous): 33
Percent of Rats with a 4-Log Titer Decrease ([23]; 12.0 mg/kg x 7 subcutaneous): 55
